A short description of data set [1]: acute toxicity by oral administration (LD50), rats. The settings on record: rat, in vivo. From the text:
Safety of the effective components of the composition of the present invention will be given hereunder. For example, acute toxicity by oral administration of sodium o-nitrophenol, sodium p-nitrophenol and sodium 5-nitroguaiacol is as follows:
Acute toxicity by oral administration is low. In addition, it has been also confirmed that those compounds are without problem in terms of toxicity by chronic toxicity test, teratogenic test and carcinogenic test. Further, as mentioned above, those compounds have been used as plant growth regulators and hair growth promoters throughout the world. In the past, they were used as injections but there was no example of adverse affection on the animals who took the plants to which they were applied, on the persons who were injected therewith and on the persons using the hair growth promoters containing them. Thus, their safety in humans has been practically confirmed. As mentioned above, o-nitrophenol, p-nitrophenol, 5-nitroguaiacol and salts thereof which are active ingredient(s) of the methods for growth promoting of the present invention have high safety.

The test system of data set [2] is Tilapia fry. The format is in vivo. Particulars: feed with 10 ppm of a single salt; for Body Weight Increase per 1 Tilapia after 4 Weeks: control 3.78; for Body Weight Increase per 1 Tilapia after 8 Weeks: control 10.10. How it is done: Tilapia fry with average body weight 2 g were used. Commercial feed for tilapia was given twice a day (morning and evening) in an amount of 5 to 8% of the body weight. The control group was given the commercial feed only, while the treated groups were given the commercial feed with the addition of the test compound(s) o-nitrophenol, p-nitrophenol and/or 5-nitroguaiacol, in the amount(s) shown in Table 3. Body weights were measured after 4 and 8 weeks.

Where [3] appears, read: female rats, read-out: LD50 for rats (female).
The mark [4] stands for this setting: male rats, read-out: LD50 for rats (male).

Where two headings read alike, the source gives them in different places.

As a reminder, the LD50 is the dose at which mortality reaches 50%. Turning to `COc1ccc([N+](=O)[O-])cc1O` [Sodium 5-nitroguaiacol, sodium 5-nitroguaiacol], the LD50 in data set [1] (setting [3]) stood at 1270 mg/kg. For the same compound, in data set [1] (setting [4]), the LD50 was 3100 mg/kg. Also, in data set [2], the “Body Weight Increase per 1 Tilapia after 4 Weeks” value came to 4.08 g; the “Body Weight Increase per 1 Tilapia after 4 Weeks, relative to control (100)” value is on record as 108; the “Body Weight Increase per 1 Tilapia after 8 Weeks” value is listed as 11.09 g; the “Body Weight Increase per 1 Tilapia after 8 Weeks, relative to control (100)” value was determined as 110.

For the compound `O=[N+]([O-])c1ccccc1O.[Na]` [Sodium o-nitrophenol, sodium o-nitrophenol], in data set [1] (setting [3]), the LD50 amounted to 1460 mg/kg. Besides, the LD50 in data set [1] (setting [4]) amounted to 2050 mg/kg. Besides, in data set [2], the “Body Weight Increase per 1 Tilapia after 4 Weeks” value came to 3.97 g; the “Body Weight Increase per 1 Tilapia after 4 Weeks, relative to control (100)” value was 105; the “Body Weight Increase per 1 Tilapia after 8 Weeks” value is on record as 10.71 g; the “Body Weight Increase per 1 Tilapia after 8 Weeks, relative to control (100)” value was found to be 106.

For the compound `O=[N+]([O-])c1ccc(O)cc1.[Na]` [Sodium p-nitrophenol, sodium p-nitrophenol], the LD50 in data set [1] (setting [3]) is 482 mg/kg. Further, the LD50 in data set [1] (setting [4]) was 1250 mg/kg. Also, in data set [2], the “Body Weight Increase per 1 Tilapia after 4 Weeks” value is 4.04 g; the “Body Weight Increase per 1 Tilapia after 4 Weeks, relative to control (100)” value worked out at 107; the “Body Weight Increase per 1 Tilapia after 8 Weeks” value is 10.61 g; the “Body Weight Increase per 1 Tilapia after 8 Weeks, relative to control (100)” value is recorded as 105.

The values are drawn from US5739171A, “Method for promoting animal growth” (priority 1993, dated 1998).
